# Reference: patent US20240246902A1, “PRODRUGS OF 6-DIAZO-5-OXO-L-NORLEUCINE” (THE JOHNS HOPKINS UNIVERSITY, priority 2021, published 2024)
# Read-outs that look alike come from different tables or passages of the source.
# Tests used:
# [1] = Efflux
# [2] = Plasma stability, mouse plasma; conditions: MP = Mouse Plasma
# [3] = Plasma stability, human plasma; format: in vitro ADME; conditions: HP = Human Plasma
# [4] = Plasma stability, plasma from CES1KO mice; conditions: CES1KO = Mouse Plasma from CES1KO mice
# [5] = Metabolic stability in swine jejunum (gut) tissue homogenate; format: in vitro ADME; conditions: prodrug 20 μM, 37° C.
# Description: (§1) The representative Compounds of the Disclosure were screened for metabolic stability in swine jejunum/liver tissue homogenates, following our previously reported methods (Zimmermann et al., J. Med. Chem., 61(9):3918-29 (2018); Tenora et al., J. Med. Chem., 62(7):3524-38 (2019)). In brief, freshly collected tissues were homogenized by probe sonication in 9× volume of 0.1 M potassium phosphate buffer over ice. Post homogenization, prodrugs were spiked at a concentration of 20 μM (in triplicate) and incubated in an orbital shaker at 37° C. for 60 min. Final concentration of DMSO in the incubations was 0.2% v/v. At each time point (0, 30, 60 min), 100 μL of sample was precipitated with 300 μL of methanol containing internal standard (IS; losartan: 0.5 μM). […] After centrifugation, 50 μL of supernatant was diluted with 50 μL of water, vortexed and submitted for analysis. Prodrug disappearance over time was measured using liquid chromatography tandem mass spectrometry (LC-MS/MS).
# (§2) The processed supernatants were analyzed on a Thermo Scientific Vanquish UPLC system (equipped with Vanquish autosampler, pumps, and column compartment) hyphenated to TSQ Altis mass spectrometer (Thermo Fisher Scientific Inc., Waltham MA). […] The autosampler was operated at 4° C. […] Peak area ratios obtained from peak area counts of analyte and internal standard were used to measure the disappearance of prodrugs.
# [6] = Solubility
# [7] = Plasma stability, rat plasma; format: in vitro ADME; conditions: RP = Rat Plasma
# [8] = Plasma stability, pig plasma; format: in vitro ADME; conditions: PP = Pig Plasma
# [9] = Metabolic stability in swine liver tissue homogenate; format: in vitro ADME; conditions: prodrug 20 μM, 37° C.
# Description: as §1, §2
# [10] = test system: P493B lymphoma cells; test: Human tumor cell-to-plasma partitioning assay (DON release in P493B cells); conditions: 10 million cells/mL, prodrug 20 μM, 37° C., 1 h
# Description: The human plasma-to-tumor cell partitioning assays were conducted using P493B lymphoma following our previously reported method. […] In brief, cells were cultured in 150 cm^2 T-flasks (Falcon™, USA, Cat. #08-772-48) with RPMI Medium 1640 medium 1× containing L-glutamine (RPMI-1640, Corning®, USA, Cat. #10-040-CV), supplemented with 10% v/v Fetal Bovine Serum (FBS, Gibco™, USA, Cat. #26140079), and 1% v/v antimycotic/antibiotic (Gibco™, USA, Cat. #15240062). Cells were grown at 37° C., in a humidified atmosphere with 5% CO2. Cells were harvested after achieving>80% confluency and centrifuged at 200×g for 5 min at 25° C. The obtained cell pellet was re-suspended in 20 mL of Dulbecco's phosphate-buffered saline (DPBS, Gibco™, USA, Cat. #14-190-144) maintained at 37° C. and cell count was determined using an automated cell counter (Bio-Rad, USA). […] Both plasma and cell pellet fractions were analyzed for intact prodrug and DON levels.
# Frozen plasma and cell pellets were thawed on wet ice. […] After centrifugation, 100 μL of the supernatant was diluted with 400 μL of water, and analyzed in LC-MS/MS. […]
# The underivatized supernatants/derivatized samples were analyzed on a LC-MS/MS system consisting of Dionex ultra high-performance LC system hyphenated with Q Exactive Focus Orbitrap mass spectrometer (Thermo Fisher Scientific Inc., Waltham, MA). […]
# [11] = physchem
# [12] = not told
# [13] = mouse, 1 h
SMILES,Efflux [1],Plasma Stability (% remaining at 60 min) [2],Plasma Stability (% remaining at 60 min) [3],Gut Stability (% remaining at 60 min) [5],Liver stability (% remaining at 60 min) [9],Efflux [12],also measured
"CC(=O)N[C@@H](Cc1c[nH]c2ccccc12)C(=O)N[C@@H](CCC(=O)C=[N+]=[N-])C(=O)OC(C)C [13′, reference compound]",23,0 ± 0 (MP) %,96 ± 3 (HP) %,11 ± 1%,–,–,Plasma Stability (% remaining at 60 min) [4]: 94 ± 1 (ces1KO) %; solubility [6]: 240 µg/mL
"CC(=O)N[C@@H](CCC(=O)C=[N+]=[N-])C(=O)OC(C)C [Compound 5a, Isopropyl (S)-2-acetamido-6-diazo-5-oxohexanoate]",–,–,–,76 ± 0%,23 ± 0%,–,Plasma Stability (% remaining at 60 min) [7]: 0 ± 0 (RP) %; Plasma Stability (% remaining at 60 min) [4]: 89 ± 2 (ces1KO) %; Plasma Stability (% remaining at 60 min) [8]: 105 ± 1 (PP) %
"CN(C)CC(=O)N[C@@H](CCC(=O)C=[N+]=[N-])C(=O)OC(C)(C)C [Compound 5h, tert-Butyl (S)-6-diazo-2-(2-(dimethylamino)acetamido)-5-oxohexanoate]",2,–,–,100 ± 1%,93 ± 1%,–,P493B cells (DON release; nmol/g) [10]: Undetectable
"CN(C)CC(=O)N[C@@H](Cc1c[nH]c2ccccc12)C(=O)N[C@@H](CCC(=O)C=[N+]=[N-])C(=O)OC(C)(C)C [Compound 11b, tert-Butyl (S)-6-diazo-2-((S)-2-(2-(dimethylamino)acetamido)-3-(1H-indol-3-yl)propanamido)-5-oxohexanoate]",33,68 ± 2 (MP) %,101 ± 0 (HP) %,79 ± 4%,80 ± 3%,–,Plasma Stability (% remaining at 60 min) [7]: 3 ± 0 (RP) %; solubility [6]: 170 µg/mL
"CC(C)(C)OC(=O)[C@H](CCC(=O)C=[N+]=[N-])NC(=O)[C@H](Cc1c[nH]c2ccccc12)NC(=O)C12CCN(CC1)CC2 [Compound 11d, tert-Butyl (S)-2-((S)-3-(1H-indol-3-yl)-2-(quinuclidine-4-carboxamido)propanamido)-6-diazo-5-oxohexanoate]",–,–,–,–,–,2,solubility [11]: 4300 µg/mL
"Cn1cc(C[C@H](NC(=O)C23CCN(CC2)CC3)C(=O)N[C@@H](CCC(=O)C=[N+]=[N-])C(=O)OC(C)(C)C)c2ccccc21 [Compound 12b, tert-Butyl (S)-6-diazo-2-((S)-3-(1-methyl-1H-indol-3-yl)-2-(quinuclidine-4-carboxamido)propanamido)-5-oxohexanoate]",–,–,–,–,–,3.48,solubility [11]: 8800 µg/mL; Plasma Stability (% remaining at 60 min) [13]: 92 ± 1 (MP) %
"Cn1cc(C[C@H](NC(=O)C2CN3CCC2CC3)C(=O)N[C@@H](CCC(=O)C=[N+]=[N-])C(=O)OC(C)(C)C)c2ccccc21 (stereo partly drawn) [Compound 12c, tert-Butyl (2S)-6-diazo-2-((2S)-3-(1-methyl-1H-indol-3-yl)-2-(quinuclidine-3-carboxamido)propanamido)-5-oxohexanoate]",–,–,–,–,–,5.37,–
"Cn1cc(C[C@H](NC(=O)CCCNC(=O)C23CCN(CC2)CC3)C(=O)N[C@@H](CCC(=O)C=[N+]=[N-])C(=O)OC(C)(C)C)c2ccccc21 [Compound 12g, tert-Butyl (S)-6-diazo-2-((S)-3-(1-methyl-1H-indol-3-yl)-2-(4-(quinuclidine-4-carboxamido)butanamido)propanamido)-5-oxohexanoate]",–,–,–,–,–,1,–
"CN(C)CC(=O)NCC(=O)N[C@@H](CCC(=O)C=[N+]=[N-])C(=O)OC(C)(C)C [Compound 14b, tert-Butyl (S)-6-diazo-2-(2-(2-(dimethylamino)acetamido)acetamido)-5-oxohexanoate]",33,73 ± 2 (MP) %,100 ± 5 (HP) %,99 ± 2%,90 ± 0%,–,solubility [6]: ~10000 µg/mL
"CC(C)(C)OC(=O)[C@H](CCC(=O)C=[N+]=[N-])NC(=O)CNC(=O)C12CCN(CC1)CC2 [Compound 14d, tert-Butyl (S)-6-diazo-5-oxo-2-(2-(quinuclidine-4-carboxamido)acetamido)hexanoate]",–,–,–,–,–,1.48,–
"CC(C)(C)OC(=O)[C@H](CCC(=O)C=[N+]=[N-])NC(=O)[C@H](Cc1ccccc1)NC(=O)C12CCN(CC1)CC2 [Compound 15b, tert-Butyl (S)-6-diazo-5-oxo-2-((S)-3-phenyl-2-(quinuclidine-4-carboxamido)propanamido)hexanoate]",–,–,–,–,–,7.31,–
"CN(C)CC(=O)N[C@@H](Cc1cccnc1)C(=O)N[C@@H](CCC(=O)C=[N+]=[N-])C(=O)OC(C)(C)C [Compound 17b, tert-Butyl (S)-6-diazo-2-((S)-2-(2-(dimethylamino)acetamido)-3-(pyridin-3-yl)propanamido)-5-oxohexanoate]",57,82 ± 6 (MP) %,96 ± 3 (HP) %,98 ± 1%,91 ± 1%,–,Plasma Stability (% remaining at 60 min) [7]: 33 ± 2 (RP) %; solubility [6]: ~10000 µg/mL
"CN(C)CC(=O)N[C@H](C(=O)N[C@@H](CCC(=O)C=[N+]=[N-])C(=O)OC(C)(C)C)c1ccccc1 [Compound 19a, tert-Butyl (S)-6-diazo-2-((S)-2-(2-(dimethylamino)acetamido)-2-phenylacetamido)-5-oxohexanoate]",–,–,–,–,82 ± 0%,24.37,–
"COCCOCCOC(=O)[C@H](CCC(=O)C=[N+]=[N-])NC(=O)[C@H](Cc1c[nH]c2ccccc12)NC(=O)CN(C)C [Compound 30b, 2-(2-Methoxyethoxy)ethyl (S)-6-diazo-2-((S)-2-(2-(dimethylamino)acetamido)-3-(1H-indol-3-yl)propanamido)-5-oxohexanoate]",–,–,42 ± 1 (HP) %,–,–,–,–
"CC(=O)N[C@@H](Cc1c[nH]c2ccccc12)C(=O)N[C@@H](CCC(=O)C=[N+]=[N-])C(N)=O [Compound 31a, (S)-2-((S)-2-Acetamido-3-(1H-indol-3-yl)propanamido)-6-diazo-5-oxohexanamide]",1,6 ± 1 (MP %,100 ± 2 (HP) %,79 ± 7%,58 ± 2%,–,–
